In PubChem BioAssay (NCI) one finds GI50 and TGI data, which are given here for 8 compounds.

Where “and” joins values, the source holds several entries; their conditions need not be identical. Equal values may be shown once.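 How tested: cells in 96-well plates exposed to compound for 48 hours at five concentrations. GI50: concentration for 50% inhibition of growth. At the TGI there is no net growth.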

Among the test systems are 786-0 renal; RPMI-8226 leukemia; A549 NSCLC; HOP-92 NSCLC; NCI-H460 lung; UO-31 renal; OVCAR-8 ovarian; KM12 colon; HCC-2998 colon; UACC-62 melanoma.
Holding throughout (assay): NCI anticancer screen, dose series, 48 h

For the compound `C[CH2][Sn]([CH2]C)([O]C(=O)c1cc(OC)c(OC)c(OC)c1)[O][Sn]([CH2]C)([CH2]C)[O]C(=O)c1cc(OC)c(OC)c(OC)c1`, the GI50 was 27.4 µM with 786-0 renal; 28.7 µM with RPMI-8226 leukemia; more than 100 µM in the test with A549 NSCLC; 19.6 µM in the test with HOP-92 NSCLC; more than 100 µM in the test with NCI-H460 lung; more than 100 µM in the test with UO-31 renal. The GI50 with OVCAR-8 ovarian is more than 42.8 µM; in the test on KM12 colon it was more than 100 µM; with HCC-2998 colon, more than 76.1 µM; with UACC-62 melanoma, 19.3 µM. Besides, the TGI with 786-0 renal was more than 59.8 µM; with RPMI-8226 leukemia it was more than 100 µM; in the test on A549 NSCLC, more than 100 µM; in the test on HOP-92 NSCLC, 36.9 µM; in the test with NCI-H460 lung, more than 100 µM; in the test on UO-31 renal, more than 100 µM. For the same compound, the TGI is more than 62.4 µM in the test on OVCAR-8 ovarian, more than 100 µM in the test on KM12 colon, more than 100 µM in the test on HCC-2998 colon and 36.7 µM with UACC-62 melanoma.

For `O=[N+]([O-])c1ccc([I+]c2ccccc2)cc1`, the GI50 was 1.78 µM in the test with 786-0 renal; 4.64 µM in the test with RPMI-8226 leukemia; 1.93 µM with A549 NSCLC; 1.78 µM in the test with NCI-H460 lung; 2.78 µM in the test on OVCAR-8 ovarian; 1.67 µM in the test on KM12 colon. Further, the GI50 was 3.22 µM in the test with HCC-2998 colon and 1.43 µM in the test with UACC-62 melanoma. The TGI in the test with RPMI-8226 leukemia is 47.2 µM and 54.2 µM; with HOP-92 NSCLC it was 23.5 µM and 25.1 µM; in the test on NCI-H460 lung, 11.9 µM and 3.93 µM; in the test on UO-31 renal, 11.9 µM; in the test with OVCAR-8 ovarian, 12.2 µM and 10.3 µM; in the test on KM12 colon, 9.64 µM and 3.15 µM. The TGI is 16.4 µM and 11.3 µM in the test on HCC-2998 colon; 8.17 µM and 3.62 µM in the test on UACC-62 melanoma.

Take `COc1ccc(C2=NN(c3ccc(S(N)(=O)=O)cc3)C(c3ccc(Cl)cc3)C2)c(O)c1` (stereo not drawn): the GI50 in the test with 786-0 renal is 2.22 µM; with RPMI-8226 leukemia, 1.84 µM; in the test with A549 NSCLC, 3.38 µM; in the test on HOP-92 NSCLC it was 2.97 µM; in the test with NCI-H460 lung, 2.31 µM; with UO-31 renal, 1.97 µM. Moreover, the GI50 with OVCAR-8 ovarian was 4.74 µM; in the test with KM12 colon, 2.67 µM; with HCC-2998 colon, 2.62 µM; in the test with UACC-62 melanoma, 5.89 µM. Besides, the TGI in the test on 786-0 renal was 5.15 µM; in the test with RPMI-8226 leukemia, 6.71 µM; in the test on A549 NSCLC it was 35.1 µM; in the test with HOP-92 NSCLC, 15.6 µM; with NCI-H460 lung, 6.08 µM; with UO-31 renal, 13.5 µM. In addition, the TGI is 44.4 µM with OVCAR-8 ovarian, 7.91 µM in the test on KM12 colon, 5.37 µM in the test on HCC-2998 colon and 19.7 µM in the test on UACC-62 melanoma.

In the case of `C/C=C(\C)C(=O)O[C@@H]1C=CC(=O)O[C@H]1COC(=O)[C@H](C)O`, the GI50 was 9.2 µM in the test with 786-0 renal; 18.8 µM in the test with RPMI-8226 leukemia; 18.7 µM with A549 NSCLC; 7.83 µM in the test on HOP-92 NSCLC; 12.7 µM with NCI-H460 lung; 12.7 µM with UO-31 renal. In addition, the GI50 with OVCAR-8 ovarian was 18.1 µM; in the test on KM12 colon, 13.3 µM; in the test with HCC-2998 colon it was 14.8 µM; in the test on UACC-62 melanoma, 12.4 µM. Besides, the TGI with 786-0 renal amounted to 21.2 µM; in the test on RPMI-8226 leukemia it was 44.2 µM; in the test with A549 NSCLC it was 51.9 µM; in the test on HOP-92 NSCLC, 21.9 µM; in the test on NCI-H460 lung, 28.6 µM; with UO-31 renal, 27.5 µM. Moreover, the TGI is more than 100 µM in the test with OVCAR-8 ovarian, 27 µM in the test on KM12 colon, 28.7 µM in the test on HCC-2998 colon and 25.5 µM in the test with UACC-62 melanoma.

For the compound `Nc1ncn([C@@H]2C=C(CO)C(O)C2O)c(=O)n1` (stereo partly drawn), the TGI in the test on 786-0 renal, in the test with RPMI-8226 leukemia, in the test with A549 NSCLC, with HOP-92 NSCLC, in the test with NCI-H460 lung and in the test with UO-31 renal was more than 100 µM in each case. The TGI in the test on OVCAR-8 ovarian, in the test on KM12 colon, in the test with HCC-2998 colon and in the test with UACC-62 melanoma was more than 100 µM throughout.

For `O=C(O)Cc1ccccc1`, the TGI in the test with 786-0 renal was more than 2000 µM; in the test on RPMI-8226 leukemia, 1420 µM; with A549 NSCLC, more than 2000 µM; in the test on HOP-92 NSCLC, > 1000 µM and 1250 µM; with NCI-H460 lung, > 1000 µM and 933 µM; with UO-31 renal, more than 2000 µM. In addition, the TGI in the test on OVCAR-8 ovarian, with KM12 colon, in the test with HCC-2998 colon and with UACC-62 melanoma was more than 2000 µM each time. The GI50 in the test on A549 NSCLC, in the test with HOP-92 NSCLC, with NCI-H460 lung, in the test on OVCAR-8 ovarian, in the test with KM12 colon and in the test on HCC-2998 colon was more than 1000 µM throughout. Also, the GI50 in the test with UACC-62 melanoma is more than 1000 µM.

As for `Cc1ccc(C)c(NC(=O)CCC(=O)CC(=O)C(C)(C)C)c1`, the TGI with 786-0 renal, with RPMI-8226 leukemia, with A549 NSCLC, with HOP-92 NSCLC, in the test on NCI-H460 lung and in the test with UO-31 renal was more than 100 µM throughout. In addition, the TGI with OVCAR-8 ovarian, in the test on KM12 colon, in the test with HCC-2998 colon and in the test with UACC-62 melanoma was more than 100 µM throughout.

Consider `O=C(/C=C/c1cccnc1)/C=C/c1cccnc1`, for which the GI50 with 786-0 renal is 2.1 µM; in the test with RPMI-8226 leukemia, 0.0732 µM; with A549 NSCLC, 2.32 µM; in the test with HOP-92 NSCLC, 2.33 µM; in the test with NCI-H460 lung it was 2.5 µM; with UO-31 renal it was 0.562 µM. Moreover, the GI50 was 3.56 µM with OVCAR-8 ovarian, 0.428 µM in the test with KM12 colon, 0.846 µM with HCC-2998 colon and 1.91 µM in the test with UACC-62 melanoma. For the same compound, the TGI in the test on 786-0 renal worked out at 6.03 µM; with RPMI-8226 leukemia, 0.252 µM; with A549 NSCLC, 6.23 µM; in the test on HOP-92 NSCLC, 5.89 µM; in the test with NCI-H460 lung, 7.29 µM; with UO-31 renal, 1.89 µM. Besides, the TGI in the test with OVCAR-8 ovarian came to 12.8 µM; with KM12 colon, 1.58 µM; in the test on HCC-2998 colon, 2.19 µM; in the test with UACC-62 melanoma, 5.36 µM.
